Laboratory results reported in patent US10533018B2, “Antimicrobial prochelators to target drug-resistant bacteria and methods of making and using the same” (Duke University, priority 2015, dated 2020).
pIC50: −log10 of the molar value. Like-named read-outs stand apart in the source and are kept apart here. One block for each compound: values may come before it.

Legend:
[1] = system: clinical isolates of Klebsiella pneumonia (Klebs); assay: Broth microdilution in Klebs clinical isolates; format: cell-based; details: Klebsiella pneumoniae, LB broth, read-out: IC50
Description: (§1) Bacterial culture reagents including LB broth (Lennox), agar-agar, ampicillin, and ceftriaxone were purchased from Sigma Aldrich Corp. The Escherichia coli (E. coli) K12 strain HB101 and pGLO E. coli transformation kit purchased from Bio-Rad Laboratories Inc. HB101 was transformed with the bla gene via the pGLO plasmid. The bla gene encodes for a TEM-1 β-lactamase that imparts penicillin resistance to the mutant E. coli K-12 strain (+Bla). Strains E. coli UTI89, [27] pCOM-GFP-transformed E. coli UTI89 (pCOM-GFP), [28] and Methicillin-Resistant Staphylococcus aureus (MRSA) clone USA300 [29] have been previously described. The Extended-Spectrum β-Lactamase (ESBL) E. coli, Klebsiella pneumonia (Klebs), and Pseudomonas aeruginosa (Pseudo) strains were clinical isolates acquired deidentified from Duke Hospital and tested for antibiotic susceptibility in the Clinical Microbiology Laboratory using standard clinical susceptibility methods.
(§2) Cultures were incubated on LB (Lennox, Sigma) agar at 37° C. in ambient atmospheric composition. Before beginning an experiment, a single bacterial colony grown on LB agar was resuspended in 2 mL LB broth and incubated overnight to form a turbid cell suspension. The overnight culture was diluted 1:100 in LB and used immediately as the working culture. To assess the antibacterial activity of compounds, the working bacterial culture was aliquoted in a clear, flat-bottomed, 96-well polystyrene plate (Costar) and the compound of interest was added in 2-fold serial dilution from 500 to 1 μM. Plates were covered with a breathable sealing film (Aeroseal, Genesee Scientific) and incubated at 37° C. in ambient atmospheric composition with shaking at 200 rpm. Optical density at 600 nm was recorded after 4 h and 20 h for each well using a standard OD600 protocol with LB serving as the blank. The resulting dose-response curves were fit to a nonlinear regression in GraphPad Prism Version 6 to calculate the IC50 of DB4-51 in each strain.

[2] = Calcein fluorescence assay for Cu competition; format: physicochemical; details: 2 μM calcein + 2.4 μM CuCl2, pH 7.4 PBS; 20 μM (10 equivalents) compound alone; 1 h
Experimental: FIG. 11: To solutions of 2 μM calcein in pH 7.4 PBS was added 2.4 μM CuCl2 and the samples were fully equilibrated at room temperature for 2 hours. Next, 20 μM TAT, 20 μM DB4-162, 0.1 units/mL β-lactamase were added and the fluorescence at 500 nm was recorded after one hour.
A calcein fluorescence assay for metal competition was utilized in order to evaluate the relative metal-binding affinity of DB4-51 compared to PT. The fluorescence intensity of the probe calcein is quenched by more than 90% upon binding Cu^2+. […] However, when incubated with 10 equivalents of DB4-51 and 0.1 units/mL Type III β-lactamase from Enterobacter cloacae, there is an 85% return in calcein fluorescence, which correlates well with the 90% return observed for PT itself at the same concentration.
FIG. 4: Relative Cu binding assay with DB4-51 and PT against calcein. Solutions of 2 μM calcein and 2.4 μM CuCl2 in pH 7.4 PBS were equilibrated at room temperature for 2 hours prior to addition of 20 μM PT, 20 μM DB4-51, and/or 0.1 units/mL β-lactamase (Bla).
The calcein assay was utilized in order to assess the relative copper chelating ability of the prochelator and TAT. The fluorescence emission of calcein is quenched by more than 90% in the presence of 1.2 equivalents of CuCl2 (FIG. 11). […] The addition of 0.1 units/mL β-lactamase alone has no effect on the quenched fluorescence signal of the Cu-calcein solution. […] However, when incubated with 10 equivalents of DB4-162 and 0.1 units/mL β-lactamase there is a 90% return in calcein fluorescence. […] While it is unclear why 10 equivalents of TAT are insufficient to out-compete calcein for copper, it may be related to the propensity of TAT to form other species in aqueous media.

[3] = system: pCOM E. coli; assay: microbe, parasite or virus in culture; format: cell-based, Escherichia coli; details: Escherichia coli, pCOM E. coli
Description: as §1, §2
(§3) The ability of DB4-162 to inhibit bacterial growth was assessed by a traditional broth microdilution method that assesses the turbidity of liquid cultures in the presence of varying concentrations of the compound. As described above for DB4-51, the antibacterial properties of the prochelator DB4-162 were assessed in non-pathogenic lab-strain HB101K-12 E. coli and compared to the pGLO-transfected mutant HB101K-12 E. coli that express β-lactamase. Clinically relevant pathogenic bacteria were also screened, including UTI89 E. coli, pCOM transfected UTI89 E. coli (pCOM), extended spectrum β-lactamase (ESBL) E. coli, methicillin-resistant Staphylococcus aureus (MRSA), and Klebsiella pneumonia (Klebs). In addition to being naturally resistant to many β-lactam antibiotics, MRSA can produce a number of β-lactamases. […] It should be noted that all of the bacteria tested are gram-negative except for gram-positive MRSA.
(§4) The goal of this screen was to calculate the IC50 of the prochelator in a series of pathogenic bacteria and compare these values to the IC50 of known antibiotics in those same strains to determine the relative effectiveness of DB4-162 against the drug-resistant and drug-susceptible bacteria in comparison to current antibiotic treatment options. Bacterial growth was monitored in LB broth at 37° C. in the presence and absence of DB4-162 for 20 hours. A concentration gradient of DB4-162 from 500 to 0 μM was used to screen all 7 strains of bacteria and the dose-response curves were fit to a […] to calculate the IC50 of DB4-162 in each strain. These IC50 values are an approximation of how effectively DB4-162 inhibits the growth of each bacterial strain in vitro.
(§5) IC50 values for ampicillin were calculated via broth microdilution in LB broth only. Values are listed as the mean followed by the 95% confidence interval about the mean. Mean and confidence intervals were calculated from a variable slope, nonlinear regression fit to the dose-response OD600 data. […]

[4] = system: −Bla K-12 E. coli; assay: microbe, parasite or virus in culture; format: cell-based, Escherichia coli; details: for pIC50: Escherichia coli, −Bla K-12 E. coli, read-out: IC50
Description: as §1, §2, §3, §4, §5

[5] = system: +Bla K-12 E. coli; assay: microbe, parasite or virus in culture; format: cell-based, Escherichia coli; details: for pIC50: Escherichia coli, +Bla K-12 E. coli
Description: as §1, §2, §3, §4, §5

[6] = system: ESBL E. coli; assay: microbe, parasite or virus in culture; format: cell-based, Escherichia coli; details: Escherichia coli, ESBL E. coli; LB broth
Description: as §1, §2, §3, §4, §5

[7] = system: Methicillin-Resistant Staphylococcus aureus (MRSA); assay: microbe, parasite or virus in culture; format: cell-based; details: for pIC50: Staphylococcus aureus
Description: as §1, §2, §3, §4, §5

[8] = system: UTI89 E. coli; assay: Broth microdilution growth inhibition (OD600); format: cell-based, Escherichia coli; details: for pIC50: Escherichia coli, UTI89 E. coli
Description: as §1, §2, §3, §4, §5

[9] = system: Klebsiella pneumonia (Klebs); assay: Broth microdilution growth inhibition (OD600); format: cell-based; details: for pIC50: Klebsiella pneumoniae
Description: as §1, §2, §3, §4, §5

[10] = system: susceptible E. coli HB101 K-12 (no β-lactamase); assay: Broth microdilution (preliminary, Table 1), susceptible K-12; format: cell-based, Escherichia coli; details: Escherichia coli; Susceptable K-12 E. coli; LB; OD600; preliminary results
Experimental: (§6) In order to determine the antibiotic activity of DB4-51, a debilitated strain of Escherichia coli (HB101 K-12) was transformed with the pGLO plasmid from Bio-Rad in order to express β-lactamase. This transformation was confirmed by growing on a selective medium containing 100 μg/ml ampicillin in Lennox LB with 1.5% agar. A broth microdilution assay was employed to determine the relative activity of DB4-51 against susceptible (HB 101 K-12, no β-lactamase) and resistant (HB 101 K-12 transformed to express β-lactamase) E. coli. Using Lennox LB as the medium. serial dilutions of the test compounds were performed in a 96-well plate and then inoculated with E. coli before incubating for 16-20 hours at 35° C. The bacterial growth was monitored by recording each well's absorbance at 600 nm (OD600.) The OD600 values of E. coli suspensions incubated with various compounds were compared in order to assess their activities.
(§7) FIG. 7: OD600 of susceptible and resistant K-12 E. coli cultures against DB4-51 and known antibiotics as a function of concentration. Ampicillin has a penicillin core and cephalexin has a cephalosporin core. Cultures were grown in LB broth at 37° C. while shaking at 200 rpm for 18 hours and then diluted to an OD600 of 0.005 before adding the compounds. Plates were grown at 35° C. while shaking at 200 rpm and the OD600 was recorded after 18 hours.
(§8) Table 1: Calculated IC50 values for DB4-51, cephalexin, ampicillin, and pyrithione. These values were derived by fitting the data to a log dose-response curve and reporting the concentration corresponding to half the maximum OD600 value for each compound.

[11] = system: resistant E. coli HB101 K-12 transformed to express β-lactamase; assay: microbe, parasite or virus in culture; format: cell-based, Escherichia coli; details: Escherichia coli
Experimental: as §6, with “Using Lennox LB as the medium. serial dilutions of the test compounds were performed in a 96-well plate and then inoculated with E. coli before incubating for 16-20 hours at 35° C.” left out
as §7, with “Plates were grown at 35° C. while shaking at 200 rpm and the OD600 was recorded after 18 hours.” left out
as §8

[12] = system: E. coli; format: cell-based; details: high concentrations (>125 μM)
Description: Further evidence for the influence of bioavailable copper on the IC50 of DB4-51 was obtained by using a checkerboard assay. […] Serial dilutions of DB4-51 in LB were arrayed against dilutions of chelator (BCS and EDTA). The antagonism exists between our prochelator, DB4-51, and the strong, extracellular chelators BCS and EDTA. […] However, at lower concentrations, EDTA works antagonistically with DB4-51 by restoring bacterial growth. This trend further underscores the influence that copper and potentially other metals have on the growth inhibitory activity of DB4-51.

pIC50 ([1]; Klebs Isolate 1): 6.40
pIC50 ([1]; Klebs Isolate 2): 6.15
pIC50 ([1]; Klebs Isolate 3): 5.70
pIC50 ([1]; Klebs Isolate 4): 6.00
pIC50 ([1]; Klebs Isolate 5): 7.00
pIC50 ([1]; Klebs Isolate 6): 6.52
pIC50 ([1]; Klebs Isolate 7): 6.52
pIC50 ([1]; Klebs Isolate 8): 7.00
pIC50 ([1]; Klebs Isolate 9): 4.14
pIC50 ([1]; Klebs Isolate 10): 7.52
pIC50 ([1]; Klebs Isolate 11): 8.00
pIC50 ([1]; Klebs Isolate 12): 7.00
pIC50 ([1]; Klebs Isolate 13): 6.00
SMILES: CO/N=C(\C(=O)N[C@@H]1C(=O)N2C(C(=O)O)=C(CSc3nc(=O)c(=O)[nH]n3C)CS[C@H]12)c1csc(N)n1 [Ceftriaxone]

SMILES: Cc1csc(=S)n1O [TAT, 3-hydroxy-4-methyl-2(3H)-thiazolethione]
return in calcein fluorescence [2]: 30%
pIC50 ([3]; LB + 10 μM CuCl2): 5.15
pIC50 ([3]; LB + 500 μM BCS): 4.55
pIC50 ([3]; LB broth): 5.22
pIC50 ([4]; LB + 10 μM CuCl2): 4.44
pIC50 ([4]; LB + 500 μM BCS): 4.15
pIC50 ([4]; LB broth): 4.64
pIC50 ([5]; LB + 10 μM CuCl2): 4.42
pIC50 ([5]; LB + 500 μM BCS): 4.15
pIC50 ([5]; LB broth): 4.44
pIC50 [6]: 4.39
pIC50 ([7]; LB + 10 μM CuCl2): 5.00
pIC50 ([7]; LB + 500 μM BCS): 4.54
pIC50 ([7]; LB broth): 4.64
pIC50 ([8]; LB + 10 μM CuCl2): 5.05
pIC50 ([8]; LB + 500 μM BCS): 4.42
pIC50 ([8]; LB broth): 5.22
pIC50 ([9]; LB + 10 μM CuCl2): 4.59
pIC50 ([9]; LB + 500 μM BCS): 4.29
pIC50 ([9]; LB broth): 4.85

SMILES: CC1=C(C(=O)O)N2C(=O)[C@@H](NC(=O)[C@H](N)c3ccccc3)[C@H]2SC1 [Cephalexin]
pIC50 [10]: 4.59
pIC50 [11]: 4.48

SMILES: O=C(O)CN(CCN(CC(=O)O)CC(=O)O)CC(=O)O [EDTA, Ethylenediaminetetraacetic acid]
effect on bacterial growth [12]: some inhibition of bacterial growth

SMILES: [Cl][Cu][Cl] [CuCl2]
increase of growth ([4]; K-12 E. coli (−Bla), 10 μM supplemental CuCl2): 5-20%
increase of growth ([5]; K-12 E. coli (+Bla), 10 μM supplemental CuCl2): 5-20%
reduction of growth ([7]; concentrations up to 500 μM): less than 20%
reduction of growth ([8]; UTI89, concentrations up to 500 μM): less than 20%
reduction of growth ([9]; concentrations up to 500 μM): less than 20%
